# Measured values reported in patent US6509319B1, “EDTA and other chelators with or without antifungal antimicrobial agents for the prevention and treatment of fungal infections” (Board of Regents, The University of Texas System, priority 1997, dated 2003).
# How the values were obtained:
# [1] = cited from earlier work
# Aspergillus flavus = conditions: 0.35 mg EDTA per mL, in vitro
# Protocol: (§1) These figures are discussed elsewhere in the Detailed Description section. A spectrophotometer was used at a frequency of 660 nm to measure the absorbency of the solution.
# (§2) For molds, all inocula were started at 1×10^4 conidia/mL. For yeast and bacteria, all inocula were started at 1×10^6 cfu/mL. The medium used was Mueller-Hinton.
# (§3) The concentration of chelator in these studies was 0.35 mg EDTA per mL water.
# Aspergillus terreus = conditions: 0.35 mg EDTA per mL, Mueller-Hinton, in vitro
# Protocol: as §1, §2, §3
# Candida krusei = conditions: 0.35 mg EDTA per mL, in vitro
# Protocol: as §1, §2, §3
# Fusarium oxysporum = conditions: 0.35 mg EDTA per mL, Mueller-Hinton, in vitro
# Protocol: as §1, §2, §3
SMILES,solubility in aqueous solution [1],inhibitory effect on growth relative to the control population (Aspergillus flavus; Mueller-Hinton),time after application from which the inhibitory effect is most clearly noticeable (Aspergillus flavus) [h],inhibitory effect on growth (Aspergillus terreus),inhibitory effect on growth (Candida krusei; Mueller-Hinton),time after contact at which the inhibitory effect is noticeable (Candida krusei),inhibitory effect on growth (Fusarium oxysporum)
C[C@@H]1[C@H](O)[C@@H](C)/C=C/C=C/C=C/C=C/C=C/C=C/C=C/[C@H](O[C@@H]2O[C@H](C)[C@@H](O)[C@H](N)[C@@H]2O)C[C@@H]2O[C@](O)(C[C@@H](O)C[C@@H](O)[C@H](O)CC[C@@H](O)C[C@@H](O)CC(=O)O[C@H]1C)C[C@H](O)[C@H]2C(=O)O [Amphotericin B],not soluble,–,–,–,–,–,–
"O=C(O)CN(CCN(CC(=O)O)CC(=O)O)CC(=O)O [EDTA, Ethylenediamine-N,N,N′,N′,-tetraacetic acid]",–,inhibitory effect,12,inhibitory effect,inhibitory effect,only a few hours,inhibitory effect
